# US20240254140A1, “COMPOUNDS AND THEIR USE IN THE TREATMENT OF BACTERIAL INFECTION” (Hoffmann-La Roche Inc., priority 2021, published 2024)
# Test system: Escherichia coli ATCC 25922
# Assay: Minimal Inhibitory Concentration (MIC) determination, broth microdilution
# Format: cell-based
# Details: ATCC25922; strain Escherichia coli ATCC 25922; broth microdilution per CLSI M07-A10; 18-24 hours at 35±2° C.; lowest concentration for complete growth inhibition
# Procedure: Minimal Inhibitory Concentration (MIC) Determination:
# The MIC of antibacterial compounds against multiple species and strains was determined using the broth microdilution method according to M07-A10 Clinical and Laboratory Standards Institute (CLSI) guidelines, using the appropriate broth medium. In short, the compound plates were prepared by dispensing 100 μL of each stock solution in the first well of a 96 well microtiter plate (MTP) at a concentration 100-fold higher than the final concentration desired in broth. Eleven serial 2-fold dilutions of the highest concentration were made in DMSO for new compounds and in water (or appropriate solution) for reference compounds [2]. 1 μL of each well was transferred in a new MTP, which served as the test plate by subsequent inoculation. This bacterial suspension was prepared from strains that were first sub-cultured on agar plates and incubated for 18-24 hours as appropriate. Following incubation, the inoculum was prepared from isolated colonies and adjusted to 0.5 McFarland turbidity standard (1 to 2×10^8 Colony Forming Units (CFU)/mL) in 0.9% saline. The bacterial suspension was then diluted 1:200 in appropriate sterile medium and within 15 minutes 100 μL/well were dispensed. Negative controls (lack of bacterial cells) and growth control wells (lack of compound) were included in all plates. MTPs were incubated for 18-24 hours at 35±2° C. in ambient air. The MIC value of each compound, expressed as μg/mL, was determined as the lowest concentration required for complete growth inhibition (no visible growth). • [1] CLSI (2015) Methods for dilution antimicrobial susceptibility tests for bacteria that grow aerobically; Approved Standard, Tenth Edition. CLSI Document M7-A10 (ISBN 1-56238-987-4). Wayne, PA: Clinical and Laboratory Standards Institute, 19087, USA. • [2] CLSI (2017) Performance Standards for Antimicrobial Susceptibility Testing; Twenty-Fifth Informational Supplement. CLSI Document M100-S27, CLSI, Wayne, Pennsylvania 19087, USA.
# Table 1 provides the Minimal Inhibitory Concentrations (MIC) in micrograms per millilitre of the compounds of present invention obtained against the strain Escherichia coli ATCC 25922.
row,Structure (SMILES),MIC
1,"N#Cc1cc(NC(=O)[C@@H]2C[C@@H](O)CN2)cc2c1CC(CN1CCC3(CC1)CN(c1cnc4c(n1)NC(=O)CO4)C(=O)O3)C2 (stereo partly drawn) [Example 59, (2S,4R)—N-[7-cyano-2-[[2-oxo-3-(3-oxo-4H-pyrazino[2,3-b][1,4]oxazin-6-yl)-1-oxa-3,8-diazaspiro[4.5]decan-8-yl]methyl]indan-5-yl]-4-hydroxy-pyrrolidine-2-carboxamide]",≤ 0.06 µg/mL
2,C[C@H](C(=O)Nc1cc(F)c2c(c1F)CC(O)(CNCC1CN(c3cnc4c(n3)NC(=O)CO4)C(=O)O1)C2)N(C)C (stereo partly shown) [Example 30],1 µg/mL
3,"COC[C@@H](N)C(=O)Nc1cc(F)c2c(c1)CC(CNCCC1CN(c3cnc4c(n3)NC(=O)CO4)C(=O)O1)C2 (stereo partly drawn) [Example 39, (2R)-2-amino-N-[7-fluoro-2-[[2-[2-oxo-3-(3-oxo-4H-pyrazino[2,3-b][1,4]oxazin-6-yl)oxazolidin-5-yl]ethylamino]methyl]indan-5-yl]-3-methoxy-propanamide]",0.5 µg/mL
4,C[C@@H](C(=O)Nc1cc(F)c2c(c1)CC(CNCCC1CN(c3cnc4c(n3)NC(=O)CO4)C(=O)O1)C2)N(C)C (stereo partly shown) [Example 9],0.125 µg/mL
5,"CN(CCC1CN(c2cnc3c(n2)NC(=O)CO3)C(=O)O1)CC1Cc2cc(NC(=O)[C@@H]3C[C@@H](O)CN3)cc(F)c2C1 (stereo partly drawn) [Example 63, (2S,4R)—N-[7-Fluoro-2-[[methyl-[2-[2-oxo-3-(3-oxo-4H-pyrazino[2,3-b][1,4]oxazin-6-yl)oxazolidin-5-yl]ethyl]amino]methyl]indan-5-yl]-4-hydroxy-pyrrolidine-2-carboxamide]",0.25 µg/mL
6,"O=C(CN1CC2CC2C1)Nc1cc(F)c2c(c1)CC(CNCCC1CN(c3cnc4c(n3)NC(=O)CO4)C(=O)O1)C2 (stereo not shown) [Example 12, 2-(3-azabicyclo[3.1.0]hexan-3-yl)-N-[7-fluoro-2-[2-[2-oxo-3-(3-oxo-4H-pyrazino[2,3-b][1,4]oxazin-6-yl)oxazolidin-5-yl]ethylaminomethyl]indan-5-yl]acetamide]",0.125 µg/mL
7,"O=C(O)C(F)(F)F.O=C1COc2ncc(N3CC4(CCN(CC5Cc6cc(NC(=O)[C@H]7NCC[C@@H]7O)cc(F)c6C5)CC4)OC3=O)nc2N1 (stereo partly drawn) [Example 54, (2S,3S)—N-[7-Fluoro-2-[[2-oxo-3-(3-oxo-4H-pyrazino[2,3-b][1,4]oxazin-6-yl)-1-oxa-3,8-diazaspiro[4.5]decan-8-yl]methyl]indan-5-yl]-3-hydroxy-pyrrolidine-2-carboxamide; 2,2,2-trifluoroacetic Acid]",0.25 µg/mL
8,CN(C)C(C)(C)C(=O)Nc1cc(F)c2c(c1)CC(CN1CCC3(CC1)CN(c1cnc4c(n1)NC(=O)CO4)C(=O)O3)C2 (stereo not shown) [Example 6],0.25 µg/mL
9,"C[C@H](C(=O)Nc1cc(F)c2c(c1)C(O)C(CNCC[C@@H]1CN(c3cnc4c(n3)NC(=O)CO4)C(=O)O1)C2)N(C)C (stereo partly drawn) [Example 66, (2R)-2-(Dimethylamino)-N-[7-fluoro-3-hydroxy-2-[[2-[(5R)-2-oxo-3-(3-oxo-4H-pyrazino[2,3-b][1,4]oxazin-6-yl)oxazolidin-5-yl]ethylamino]methyl]indan-5-yl]propanamide]",4 µg/mL
10,"C[C@H](C(=O)Nc1cc(F)c2c(c1)CC(CNCCC1CN(c3cnc4c(n3)NC(=O)CO4)C(=O)O1)C2)N(C)C (stereo partly drawn) [Example 4, (2R)-2-(dimethylamino)-N-[7-fluoro-2-[[2-[2-oxo-3-(3-oxo-4H-pyrazino[2,3-b][1,4]oxazin-6-yl)oxazolidin-5-yl]ethylamino]methyl]indan-5-yl]propanamide]",0.125 µg/mL
11,"CC(C)(N)C(=O)Nc1cc(F)c2c(c1)CC(CNCCC1CN(c3cnc4c(n3)NC(=O)CO4)C(=O)O1)C2 (stereo not shown) [Example 43, 2-amino-N-[7-fluoro-2-[[2-[2-oxo-3-(3-oxo-4H-pyrazino[2,3-b][1,4]oxazin-6-yl)oxazolidin-5-yl]ethylamino]methyl]indan-5-yl]-2-methyl-propanamide]",0.25 µg/mL
12,"CO[C@@H]1C[C@@H](C(=O)Nc2cc(F)c3c(c2)CC(CNCCC2CN(c4cnc5c(n4)NC(=O)CO5)C(=O)O2)C3)N(C)C1 (stereo partly drawn) [Example 17, (2S,4R)-N-[7-fluoro-2-[[2-[2-oxo-3-(3-oxo-4H-pyrazino[2,3-b][1,4]oxazin-6-yl)oxazolidin-5-yl]ethylamino]methyl]indan-5-yl]-4-methoxy-1-methyl-pyrrolidine-2-carboxamide]",1 µg/mL

# Now from value to compound:
row,MIC,Structure (SMILES)
1,0.5 µg/mL,"O=C1COc2ncc(N3CC4(CCN(CC5Cc6cc(NC(=O)[C@@H]7C[C@@H](O)CN7)cnc6C5)CC4)OC3=O)nc2N1 (stereo partly drawn) [Example 60, (2S,4R)-4-Hydroxy-N-[6-[[2-oxo-3-(3-oxo-4H-pyrazino[2,3-b][1,4]oxazin-6-yl)-1-oxa-3,8-diazaspiro[4.5]decan-8-yl]methyl]-6,7-dihydro-5H-cyclopenta[b]pyridin-3-yl]pyrrolidine-2-carboxamide]"
2,≤ 0.06 µg/mL,"O=C1COc2ncc(N3CC4(CCN(CC5Cc6cc(NC(=O)[C@@H]7C[C@H](O)CN7)cc(F)c6C5)CC4)OC3=O)nc2N1 (stereo partly drawn) [Example 57, (2S,4S)—N-[7-Fluoro-2-[[2-oxo-3-(3-oxo-4H-pyrazino[2,3-b][1,4]oxazin-6-yl)-1-oxa-3,8-diazaspiro[4.5]decan-8-yl]methyl]indan-5-yl]-4-hydroxy-pyrrolidine-2-carboxamide]"
3,0.5 µg/mL,CC(C)(O)C(=O)Nc1cc(C#N)c2c(c1)CC(CNCCC1CN(c3cnc4c(n3)NC(=O)CO4)C(=O)O1)C2 (stereo not shown) [Example 20]
4,4 µg/mL,"N[C@@H](CC(=O)O)C(=O)Nc1cc(F)c2c(c1)CC(CNCCC1CN(c3cnc4c(n3)NC(=O)CO4)C(=O)O1)C2.O=C(O)C(F)(F)F (stereo partly drawn) [Example 48, (3S)-3-amino-4-[[7-fluoro-2-[[2-[2-oxo-3-(3-oxo-4H-pyrazino[2,3-b][1,4]oxazin-6-yl)oxazolidin-5-yl]ethylamino]methyl]indan-5-yl]amino]-4-oxo-butanoic acid; 2,2,2-trifluoroacetic acid]"
5,2 µg/mL,CN(C)[C@]1(C(=O)Nc2cc(F)c3c(c2)CC(CNCCC2CN(c4cnc5c(n4)NC(=O)CO5)C(=O)O2)C3)CCOC1 (stereo partly shown) [Example 19]
6,1 µg/mL,O=C1COc2ncc(N3CC(CCNCC4Cc5cc(NC(=O)[C@H]6C[C@@H](O)CN6)cc(F)c5C4)OC3=O)nc2N1 (stereo partly shown) [Example 45]
7,0.125 µg/mL,"C[C@H](C(=O)Nc1cc(F)c2c(c1)CC(CNCC[C@H]1CN(c3cnc4c(n3)NC(=O)CO4)C(=O)O1)C2)N(C)C (single isomer, unassigned) [Example 68]"
8,0.25 µg/mL,"Cc1ncc(C(=O)Nc2cc(F)c3c(c2)CC(CNCCC2CN(c4cnc5c(n4)NC(=O)CO5)C(=O)O2)C3)o1 (stereo not shown) [Example 15, N-[7-fluoro-2-[[2-[2-oxo-3-(3-oxo-4H-pyrazino[2,3-b][1,4]oxazin-6-yl)oxazolidin-5-yl]ethylamino]methyl]indan-5-yl]-2-methyl-oxazole-5-carboxamide]"
9,0.5 µg/mL,Cc1cc(NC(=O)CN(C)C)nc2c1CC(CNCCC1CN(c3cnc4c(n3)NC(=O)CO4)C(=O)O1)C2 (stereo not shown) [Example 24]
10,0.5 µg/mL,C[C@H](C(=O)Nc1ccc2c(c1F)CC(CNCCC1CN(c3cnc4c(n3)NC(=O)CO4)C(=O)O1)C2)N(C)C (stereo partly shown) [Example 23]
11,0.25 µg/mL,CN(C)C(C)(C)C(=O)Nc1cc(F)c2c(c1)CC(CNCCC1CN(c3cnc4c(n3)NC(=O)CO4)C(=O)O1)C2 (stereo not shown) [Example 3]
12,≤ 0.06 µg/mL,"O=C1COc2ncc(N3CC4(CCN(CC5Cc6cc(NC(=O)[C@H]7C[C@H](O)CN7)cc(F)c6C5)CC4)OC3=O)nc2N1 (stereo partly drawn) [Example 56, (2R,4S)—N-[7-Fluoro-2-[[2-oxo-3-(3-oxo-4H-pyrazino[2,3-b][1,4]oxazin-6-yl)-1-oxa-3,8-diazaspiro[4.5]decan-8-yl]methyl]indan-5-yl]-4-hydroxy-pyrrolidine-2-carboxamide]"
13,0.5 µg/mL,CN(CC(=O)Nc1cc(F)c2c(c1)CC(CNCCC1CN(c3cnc4c(n3)NC(=O)CO4)C(=O)O1)C2)C1COC1 (stereo not shown) [Example 11]
14,0.5 µg/mL,"CC(C)(O)C(=O)Nc1cc(C#N)c2c(c1)CC(CNCCC1CN(c3ccc4c(n3)NC(=O)CO4)C(=O)O1)C2 (stereo not shown) [Example 21, N-[7-cyano-2-[[2-[2-oxo-3-(3-oxo-4H-pyrido[3,2-b][1,4]oxazin-6-yl)oxazolidin-5-yl]ethylamino]methyl]indan-5-yl]-2-hydroxy-2-methyl-propanamide]"
15,1 µg/mL,"Cc1cc(NC(=O)[C@@H](C)N(C)C)nc2c1CC(CNCCC1CN(c3cnc4c(n3)NC(=O)CO4)C(=O)O1)C2 (stereo partly drawn) [Example 25, (2R)-2-(dimethylamino)-N-[4-methyl-6-[[2-[2-oxo-3-(3-oxo-4H-pyrazino[2,3-b][1,4]oxazin-6-yl)oxazolidin-5-yl]ethylamino]methyl]-6,7-dihydro-5H-cyclopenta[b]pyridin-2-yl]propanamide]"
16,1 µg/mL,"O=C(CN1CCOCC1)Nc1cc(F)c2c(c1)CC(CNCCC1CN(c3cnc4c(n3)NC(=O)CO4)C(=O)O1)C2 (stereo not shown) [Example 5, N-[7-fluoro-2-[[2-[2-oxo-3-(3-oxo-4H-pyrazino[2,3-b][1,4]oxazin-6-yl)oxazolidin-5-yl]ethylamino]methyl]indan-5-yl]-2-morpholino-acetamide]"
